What is called Ki is a dissociation constant, usually derived from enzyme kinetics or from competition with a known ligand. A lower Ki goes with tighter binding.

Each structure is given as a SMILES string.

We go through two compounds from BindingDB's records for doi:10.1016/j.chembiol.2016.11.011 (McMaster University, 2017).

The experiment deals with 2''-aminoglycoside nucleotidyltransferase (Pseudomonas aeruginosa (g-Proteobacteria)). Briefly: In Vitro ANT(2")-Ia Pyrophosphatase Assay. The method, then:
In vitro ANT(2")-Ia pyrophosphatase assays were performed as described previously (Cox et al., 2015; Hirsch et al., 2014), with minor modifications. To improve compound solubility, Tween 20 was added to a final concentration of 0.01% (v/v) and compounds were added at a final concentration of 2% (v/v) DMSO. The enzyme ([…] reaction volume) was incubated with compound for 10 min at 25 °C, prior to initiation of the reaction with nucleotide. All inhibitory assays were performed with kanamycin B kept at Km (Cox et al., 2015; Hirsch et al., 2014).

For `CS(=O)(=O)CCNCc1ccc(-c2ccc3ncnc(Nc4ccc(OCc5ccccc5)c(Cl)c4)c3c2)o1`, the Ki was determined as 60 µM.
In the case of `[O-][S+]1CCN(Cc2ccc(-c3ccc4ncnc(Nc5ccc(OCc6ccccc6)c(Cl)c5)c4c3)o2)CC1` [(4-benzyloxy-3-chloro-phenyl)-{6-[5-(1-oxo-1lambda*4*-thiomorpholin-4-ylmethyl)-furan-2-yl]-quinazolin-4-yl}-amine], the affinity, expressed as Ki, was 12.9 µM.
